Earlier results as cited in patent publication US6858744B2, “Dihydoxyhexanoic acid derivatives, their intermediates, and methods of making” (Pfizer Inc., priority 2002, dated 2005).

## O=C(O)C(F)(F)F [trifluoro-acetic acid]
  pKa: 0.3
